We go through six compounds from patent US9551722B2, “Amyloid binding agents” (The Regents of the University of California, priority 2009, dated 2017).

The target in this experiment is T1, aggregated Aβ(1-42) peptides (Homo sapiens, UniProt P05067).
T1 construct: preaggregated Aβ(1-42) peptides
The experiment can be described thus: Fluorescence spectra before and after mixing with preaggregated Aβ(1-42) (Cmpds 8a-8d, 11, 14, 19). The format is binding. As to conditions: for Emission max before binding / Excitation max before binding: 4 μM compound in PBS, without Aβ; for Emission max before binding / Excitation max before binding / Emission max after binding / Excitation max after binding: 25° C.; for Fold increase (fluorescence intensity after binding) / Emission max after binding / Excitation max after binding: 4 μM compound, 5 μM aggregated Aβ(1-42); for Emission max after binding / Excitation max after binding: PBS. An excerpt: An initial study to determine whether a compound can associate with aggregated Aβ is to compare its fluorescence spectra before and after mixing with the Aβ aggregates. See E. E. Nesterov, J. Skoch, B. T. Hyman, W. E. Klunk, B. J. Bacskai, T. M. Swager, Angew. Chem. Int. Edit. 2005, 44:5452-5456; Z. P. Zhuang, M. P. Kung, H. F. Kung, J. Med. Chem. 2006, 49:2841-2844; Q. A. Li, J. S. Lee, C. Ha, C. B. Park, G. Yang, W. B. Gan, Y. T. Chang, Angew. Chem. Int. Edit. 2004, 43:6331-6335; H. F. Kung, C. W. Lee, Z. P. Zhuang, M. P. Kung, C. Hou, K. Plossl, J. Am. Chem. Soc. 2001, 123:12740-12741. […] See H. LeVine III, Protein Sci. 1993, 2:404-410. Along these lines we measured the fluorescent properties of each compound at 4 μM concentration before and after mixing with preaggregated Aβ(1-42) peptides (5 μM, aggregated in PBS buffer for 3 days at 25° C.).
Aggregated Aβ peptide was prepared by dissolving Aβ(1-42) in PBS pH 7.4 to a final concentration of 100 μM. This solution was magnetically stirred at 1200 rpm for 3 days at room temperature. The 100 μM Aβ(1-42) stock solution in PBS was aliquoted and frozen at […] for up to 4 weeks without noticeable change in its property. 150 μL of pre-aggregated Aβ(1-42) was added to 2.85 mL of compound to attain a final concentration of 5 μM Aβ(1-42) and 4 μM of compound. The solution was transferred to 3 mL cuvette and the fluorescence measured at 25° C. […] The fluorescence excitation spectra of Cmpds 8a, 8b, 8c, 14 and 19 are depicted in FIG. 4, respectively.

T1 sequence (P05067 672-713 limits assumed): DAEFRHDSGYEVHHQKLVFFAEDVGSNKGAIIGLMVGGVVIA

Turning to `CCN(CC)c1ccc(C=C(C#N)C(=O)OCCOCCOCCOC)cc1` (stereo in doubt) [Cmpd 8c, (Z)-2-(2-(2-methoxyethoxyl)ethoxy)ethyl 2-cyano-3-(4-(diethylamino)phenyl)acrylate], the “Emission max before binding” value is reported as 478 nm, the “Excitation max before binding” value is listed as 445 nm, the “Fold increase (fluorescence intensity after binding)” value (“Fold increase” for short) turned out to be 4.2 fold and the “Emission max after binding” value is listed as 470 nm. Also, the “Excitation max after binding” value worked out at 442 nm.
Taken in the same sequence, the figures for `COCCOCCOCCOC(=O)/C(C#N)=C/c1ccc(N(C)C)cc1` [Cmpd 8a, (E)-2-(2-(2-methoxyethoxyl)ethoxy)ethyl 2-cyano-3-(4-(dimethylamino)phenyl)acrylate] were 476 nm, 439 nm, 1.8 fold, 470 nm and 435 nm.
Taken in the same sequence, the figures for `CN(C)c1ccc(/C=C(\C#N)C(=O)OCC(O)CO)cc1` (stereo not shown) [Cmpd 14, (E)-2,3-dihydroxypropyl 2-cyano-3-(4-(dimethylamino)phenyl) acrylate] were 476 nm, 437 nm, 2.2 fold, 467 nm and 434 nm.
The like results for `CCCCN(CCCC)c1ccc(C=C(C#N)C(=O)OCCOCCOCCOC)cc1` (stereo in doubt) [Cmpd 8d, (Z)-2-(2-(2-methoxyethoxyl)ethoxy)ethyl-2-cyano-3-(4-(dibutylamino)phenyl)acrylate] were, in that order, 466 nm, 432 nm, 9.4 fold, 468 nm and 440 nm.
For the compound `COCCOCCOCCOC(=O)/C(C#N)=C/c1ccc2cc(N3CCCCC3)ccc2c1` [Cmpd 11, (E)-2-(2-(2-methoxyethoxyl)ethoxy)ethyl-2-cyano-3-(6-(piperidin-1-yl)naphthalen-2-yl)acrylate], the “Emission max before binding” value is given as 462 nm, the “Excitation max before binding” value was determined as 445 nm, the “Fold increase” value is reported as 9.3 fold and the “Emission max after binding” value was 538 nm. Besides, the “Excitation max after binding” value stood at 440 nm. Besides, the “Red shift of emission upon binding” value (binding to preaggregated Aβ) came out at 76 nm.
`COCCOCCOCCOC(=O)/C(C#N)=C/c1ccc(N(C)C)cc1OC` [Cmpd 8b, (E)-2-(2-(2-methoxyethoxyl)ethoxy)ethyl 2-cyano-3-(4-(dimethylamino)-2-methoxyphenyl)acrylate]: the “Emission max before binding” value is reported as 478 nm, the “Excitation max before binding” value came to 442 nm, the “Fold increase” value is given as 1.3 fold and the “Emission max after binding” value is 469 nm. Also, the “Excitation max after binding” value was found to be 444 nm.
